The results in this text go back to patent US8283365B2, “Indole modulators of the alpha 7 nicotinic acetylcholine receptor” (Proximagen Limited, priority 2008, dated 2012).

In the assay the target is T1, human α7 nAChR (Homo sapiens, UniProt P36544).
T1 construct: expressed in transfected cells; host or cells: GH4C1 (rat pituitary) cell line, stably transfected
Put plainly: FLIPR cell-based calcium flux assay for PAM activity at α7 nAChR (nicotine-evoked response). The note with it: GH4C1 cell line stably transfected with human α7 nAChR. How it is done:
The PAM activity of the compounds of the invention at the α7 nAChR may be determined using the following cell-based calcium flux assay which uses a Fluorimetric Image Plate Reader (FLIPR) (see Schroeder et al.; J. Biomolecular Screening, 1(2), p 75-80, 1996).
GH4C1 cell line stably transfected with human α7 nAChR was suspended in a 384 well plate and incubated at 30° C. for 48 h in a 5% carbon dioxide atmosphere. The growth media was removed and the cells washed three times with a solution of Hanks' balanced salt solution (HBSS), 20 mM HEPES and 2.5 mM probenecid leaving 20 μl washing solution in each well. A loading solution (20 μl) containing HBSS, probenecid, 1-4 μM Fluo4 AM (a calcium indicator dye) and pluronic acid was added and the plate incubated for 45 min at 37° C. under an atmosphere free from carbon dioxide. The cells were washed three times leaving 30 μl in each well. The plate containing the cells and calcium indicator dye were then transferred to the FLIPR. The assay was initiated by collecting baseline datapoints at 10 second intervals followed by addition of the test compound in buffer solution (0.33% DMSO) and diluted to a final concentration of 10 μM and serial dilution of the wells, 1:2 or 1:3, gave a low concentration of <1 nM. Following a further 5-10 mins 10 μl of 50 μM nicotine was added and data collected for 2-3 mins. […]
A general note: Calcium flux is commonly read through the fluorescence of an indicator in the cells.

Structures are written as SMILES.

T1 sequence (P36544 23-502): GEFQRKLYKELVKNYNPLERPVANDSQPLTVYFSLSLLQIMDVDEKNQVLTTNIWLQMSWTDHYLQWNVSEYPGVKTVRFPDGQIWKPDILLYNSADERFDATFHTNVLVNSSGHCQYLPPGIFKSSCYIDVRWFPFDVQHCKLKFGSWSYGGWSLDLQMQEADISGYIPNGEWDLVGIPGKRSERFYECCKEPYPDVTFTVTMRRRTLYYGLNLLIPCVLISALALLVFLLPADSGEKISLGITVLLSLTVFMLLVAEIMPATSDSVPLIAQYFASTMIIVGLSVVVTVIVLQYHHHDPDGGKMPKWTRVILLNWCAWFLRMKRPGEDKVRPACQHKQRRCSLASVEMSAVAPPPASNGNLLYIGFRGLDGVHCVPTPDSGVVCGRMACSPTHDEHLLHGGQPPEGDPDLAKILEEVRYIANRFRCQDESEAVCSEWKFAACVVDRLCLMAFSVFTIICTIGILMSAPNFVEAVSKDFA

What is called EC50 is the concentration needed to bring the measured effect to its halfway point. In the case of `O=C(NCc1ccc2[nH]c(C(F)(F)F)cc2c1)c1ccc(C(F)(F)F)nc1` [Compound 1, N-[(2-Trifluoromethyl-1H-indol-5-yl)methyl]-6-(trifluoromethyl)-3-pyridinecarboxamide], for the setting “potentiation of nicotine-evoked calcium flux”, the EC50 was under 1000 nM. The “maximum potentiation of the response area relative to nicotine control” value (relative to nicotine control) is reported as “approximately 1200%”.
